Results from patent publication US20060172019A1 (priority 2003, published 2006).
“Also recorded” adds a separate entry of the source. Where two headings read alike, the source gives them in different places.

Columns and labels:
[1] = tested on: J774 murine macrophage cells; test: Alamar Blue J774 murine macrophage viability assay; assay type: cell-based; details: for IC50: Mus musculus; for effect on J774 survival: data not shown
Protocol: J774 cells were plated at 10^4 cells per well in 150 μL αMEM (α Modified Eagle Medium) in 96-well plates and grown overnight. The next day, compounds were added to the cultures, and culture was continued for another 72 hours.
Alamar Blue is an oxidation-reduction sensitive indicator. The dye itself is in the oxidised state, which is blue and non-fluorescent. The dye can accept electrons from reducing species, such as NADPH and FADH, to form a reduced dye species, which is red and fluorescent. Thus the transformation from oxidised form to reduced form can be measured by fluorimetric or colourimetric means. For fluorescence measurements, 530-560 nm excitation and 590 nm emission wavelengths are typically used. For colourimetric measurements, absorbance is measured at 570 nm (reduced form) and 600 nm (oxidised form) and a simple calculation performed to determine the relative quantities of the two species.
A high ratio of the reducing species, NADPH and FADH, to the corresponding oxidised species, NADP and FAD, is an indicator that cells are proliferating and viable. A low ratio indicates cells that are quiescent or non-viable.
Briefly, Alamar Blue (Biosource International) was added undiluted to the each well (1:10 v/v, 15 μL). The plate was incubated at 37° C. for 3-4 hours and the fluorescence was measured at 570 nm, with a 25 nm bandwidth. A high reading indicated cells with normal viability, and a low reading indicates cells that have been damaged and are no longer proliferating normally.
In general, compounds studied were made up as 100 mM solutions in DMSO. These stock solutions were then diluted 100 or 1000× in culture medium (αMEM).

[2] = tested on: rabbit osteoclasts; test: Rabbit osteoclast culture; assay type: cell-based
Protocol: Osteoclast survival and activity was studied in cultures of rabbit osteoclasts. Osteoclasts were isolated from the long bones of 2-3 day-old rabbits as described previously (see, e.g., Coxon et al., 2000), plated on dentine slices and cultured in αMEM supplemented with 10% FCS and penicillin and streptomycin at 37° C. in 5% CO2 for 48 hours in the presence or absence of test compounds.

[3] = tested on: ovariectomy induced bone loss; test: Ovariectomy induced bone loss, peripheral quantitative computed tomography; assay type: in vivo, C57/BL6 mice; details: for ovariectomy-induced bone loss in a mouse model: in vivo
[4] = target: T1, CB1 receptor (Homo sapiens, UniProt P21554); details: cited from earlier work
[5] = target: T1, CB1 receptor; details: read-out: Ki (nM) CB1, cited from earlier work
[6] = target: T2, CB2 receptor (Homo sapiens, UniProt P34972); details: cited from earlier work; for Classification CB2: Table 1; for CB receptor function (CB2): Table 2
[7] = target: T2, CB2 receptor
[8] = tested on: mouse osteoblasts; test: Mouse osteoblast culture (Alamar Blue); assay type: cell-based; details: 72 hours, n=3
Protocol: Osteoblasts were isolated as described above and plated at 10^4 cells/well in 96-well plates in 100 μL of αMEM supplemented with 10% FCS and antibiotics. Test substances were added after 24 hours and left for 72 hours. Cell viability was assessed using the Alamar Blue assay.

[9] = tested on: osteoclasts; test: cells; assay type: cell-based, mice; details: Mus musculus, Osteoclast; TRAcP MNC and resorbed area, n=3; read-out: IC50, inhibition of osteoclast function and bone resorption
Protocol: Osteoblasts were isolated from the calvarial bones of 2-day-old mice by sequential collagenase digestion (type I collagenase, Sigma) and cultured in αMEM supplemented with 10% FCS and penicillin and streptomycin at 37° C. in 5% CO2. […] The resulting bone marrow cells were washed with PBS and resuspended in culture medium.
Osteoblasts and bone marrow cells were plated at 10^4 cells/well and 2×10^5 cells/well, respectively, in 96-well plates in 150 μL of αMEM supplemented with 10% FCS, antibiotics and 10 nM 1,25-dihydroxyvitamin D3. Test substances were added on day 7 and the cultures were terminated on day 10. At the end of the culture period, osteoclasts were identified by TRAcP staining and resorption pits were quantified by reflected light microscopy, as described above.

[10] = tested on: ovariectomy induced bone loss; test: Ovariectomy induced bone loss, dual energy x-ray absorptiometry; assay type: in vivo, C57/BL6 mice; details: 6 mg/kg, OVX operation, DEXA
Protocol: Animals. Female 9 week-old C57/BL6 mice. Animals were housed in a designated animal facility and routinely maintained on a 12 h:12 h light:dark cycle and given ad libitum access to food and water.
Ovariectomy induced bone loss. Bilateral ovariectomy (Ovx) was performed under general anaesthesia. Sham ovariectomy (Sham) was similarly performed but with externalisation and replacement of the ovaries. Animals were given a daily injection of (a) candidate compound (e.g., 6 mg/kg) in vehicle (corn oil), or (b) vehicle (corn oil). After 21 days, the animals were killed, and the tibial bones were dissected and used for bone mineral density measurements and histomorphometric analysis (see below).
Whole body, spine and femoral bone mineral density (BMD) and bone mineral content (BMC) were determined using a Piximus small animal DEXA scanner at the start and the end of the experiment. Daily quality assurance measurements were performed using a phantom according to the manufacturer's instructions.

[11] = J774, Alamar Blue, 72 hours, n=3, read-out: IC50, J774 survival
[12] = J774 viability assay, Table 2, read-out: IC50 in J774 cells
[13] = Table 1; read-out: Ki (nM) CB2; cited from earlier work

T2 sequence (P34972 whole entry): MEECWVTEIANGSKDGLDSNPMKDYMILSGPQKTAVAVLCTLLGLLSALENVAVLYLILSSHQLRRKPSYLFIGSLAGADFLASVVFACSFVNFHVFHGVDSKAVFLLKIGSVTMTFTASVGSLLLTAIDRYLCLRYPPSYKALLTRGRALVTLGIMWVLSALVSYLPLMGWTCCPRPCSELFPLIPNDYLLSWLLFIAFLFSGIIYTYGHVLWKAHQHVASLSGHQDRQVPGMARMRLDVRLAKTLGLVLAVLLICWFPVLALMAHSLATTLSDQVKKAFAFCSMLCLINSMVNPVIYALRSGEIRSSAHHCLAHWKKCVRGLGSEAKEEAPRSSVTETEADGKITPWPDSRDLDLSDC
T1 sequence (P21554 whole entry): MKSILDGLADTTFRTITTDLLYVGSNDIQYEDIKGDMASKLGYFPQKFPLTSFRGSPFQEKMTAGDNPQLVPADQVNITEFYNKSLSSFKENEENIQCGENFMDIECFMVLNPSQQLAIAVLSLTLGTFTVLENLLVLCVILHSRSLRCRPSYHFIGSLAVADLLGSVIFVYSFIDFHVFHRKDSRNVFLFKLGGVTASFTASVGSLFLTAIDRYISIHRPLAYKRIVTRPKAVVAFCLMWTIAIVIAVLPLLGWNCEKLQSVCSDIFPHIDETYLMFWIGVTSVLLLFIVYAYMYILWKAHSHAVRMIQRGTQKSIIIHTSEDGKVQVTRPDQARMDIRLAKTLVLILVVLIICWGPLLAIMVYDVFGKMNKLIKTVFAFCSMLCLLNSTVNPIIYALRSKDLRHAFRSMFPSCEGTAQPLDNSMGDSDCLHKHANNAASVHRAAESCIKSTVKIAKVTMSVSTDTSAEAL

With `Cc1c(C(=O)NN2CCCCC2)nn(-c2ccc(Cl)cc2Cl)c1-c1ccc(I)cc1` [AM251] the “J774 viability (summary in words)” value [1] was “inhibit”, the “bone resorption (resorbed area)” value ([2]; 10 μM (p<0.03) and 20 μM (p<0.01), 48 hours) was “reduced” and the “ovariectomy-induced bone loss in a mouse model” value [3] was “completely reverse”. The “CB receptor function (CB1)” value [4] was “CB1 inverse agonist” and the “Classification CB1” value [4] was “Inverse agonist”.

In the case of `Cc1c(C(=O)NN2CCOCC2)nn(-c2ccc(Cl)cc2Cl)c1-c1ccc(I)cc1` [AM281], the “Classification CB1” value ([4]; Table 1) is given as “Inverse agonist” and the Ki ([5]; Table 1) is given as 12 nM.

With `COc1ccc(C(=O)c2c(C)n(CCN3CCOCC3)c3cc(I)ccc23)cc1` [AM630] the “J774 viability (summary in words)” value [1] was “inhibit”, the IC50 [1, 11] was ~20 µM and the IC50 [1, 12] was 20 µM. The “Classification CB2” value [6] was “Inverse agonist” and the “CB receptor function (CB2)” value [6] was “CB2 inverse agonist”.

With `CCCCC/C=C\C/C=C\C/C=C\C/C=C\CCCC(=O)NCCO` [Anandamide, arachidonyl ethanolamide] the “J774 viability (summary in words)” value [1] was “inhibits”, the IC50 [1, 11] was ~40 µM and the IC50 [1, 12] was 40 µM. For the same compound, the “effect on J774 survival” value ([1]; low concentrations) was “no effect”, the “Classification CB2” value [6] was “Partial agonist” and the “CB receptor function (CB2)” value [6] was “CB2 partial agonist/; also recorded: antagonist”.

In the case of `CCCCCCC(C)(C)c1ccc([C@@H]2C[C@H](O)CC[C@H]2CCCO)c(O)c1` [CP55940], the “J774 viability (summary in words)” value [1] is reported as “do not affect”, the “IC50 in J774 cells” value ([1]; J774 viability assay, Table 2) is reported as “inactive” and the “effect on J774 survival” value ([1]; concentrations of up to 100 μM) is reported as “did not affect”. For the same compound, the “CB receptor function (CB1)” value [4] was “CB1 agonist” and the “CB receptor function (CB2)” value [6] was “CB2 agonist”.

For `CCCCCc1cc(O)c2c(c1)OC(C)(C)c1ccc(C)cc1-2` [Cannabinol, cannabinol], the Ki ([7]; read-out: Ki (nM) CB2; Table 1; cited from earlier work) is given as 580 nM, the “Classification CB1” value [4] is given as “Neutral antagonist” and the “Classification CB2” value [6] is given as “Inverse agonist”. For the same compound, the Ki [5] was 115 nM.

In the case of `CCCCCOc1c(OC)ccc2cc(C(=O)NCc3ccc4c(c3)OCO4)c(=O)[nH]c12` [JTE-907, 7-Methoxy-2-oxo-8-pentyloxy-1,2-dihydro-quinoline-3-carboxylic acid (benzo[1,3]dioxol-5-yl-methyl)-amide], the IC50 [1, 11] is reported as ~25 µM, the IC50 [1, 12] is reported as 25 µM and the osteoblast survival [8] is reported as “little activity”. For the same compound, the “Classification CB1” value [4] was “Inactive”, the “Classification CB2” value [6] was “Inverse agonist” and the “CB receptor function (CB2)” value [6] was “CB2 inverse agonist”. The Ki [5] was 684 nM.

In the case of `CCCC(C)(C)c1ccc2c(c1)OC(C)(C)[C@@H]1CC=C(C)C[C@@H]21` [JWH 133], the “J774 viability (summary in words)” value [1] is reported as “does not affect”, the “IC50 in J774 cells” value ([1]; J774 viability assay, Table 2) is reported as “inactive” and the “effect on J774 survival” value ([1]; concentrations of up to 20 μM) is reported as “did not affect”. The “CB receptor function (CB2)” value [6] was “CB2-selective agonist”.

In the case of `COc1ccc(-c2oc3cc(OC)ccc3c2C(=O)c2ccc(C#N)cc2)cc1` [LY320135], the “Classification CB1” value ([4]; Table 1) is listed as “Inverse agonist” and the “Classification CB2” value [6] is listed as “Inactive”.

In the case of `CC1=CCC2[C@@H](C1)c1c(O)cc(CC#CCCCN=[N+]=[N-])cc1OC2(C)C` (stereo partly drawn) [O1184], the Ki [7, 13] is listed as 7.4 nM, the “Classification CB1” value ([4]; Table 1) is listed as “Partial agonist” and the “Classification CB2” value [6] is listed as “Inverse agonist”. The Ki ([5]; Table 1) was 5.2 nM.

In the case of `CC1=CCC2[C@@H](C1)c1c(O)cc(C/C=C\CCCN=[N+]=[N-])cc1OC2(C)C` (stereo partly drawn) [O1238], the Ki [7, 13] is listed as 7.8 nM, the “Classification CB1” value ([4]; Table 1) is listed as “Partial agonist” and the “Classification CB2” value [6] is listed as “Partial agonist”. For the same compound, the Ki ([5]; Table 1) was 3.5 nM.

In the case of `Cc1c(C(=O)NN2CCCCC2)nn(-c2ccc(Cl)cc2Cl)c1-c1ccc(Cl)cc1` [SR141716A], the “Classification CB2” value [6] is given as “Inverse agonist”.

With `Cc1ccc(Cn2nc(C(=O)NC3C4(C)CCC(C4)C3(C)C)cc2-c2ccc(Cl)c(C)c2)cc1` [SR144528, 5-(4-Chloro-3-methyl-phenyl)-1-(4-methyl-benzyl)-1H-pyrazole-3-carboxylic acid ((1S)-1,3,3-trimethylbicyclo[2.2.1]hept-2endo,exo-yl)-amide] the IC50 [1, 11] was ~9 µM, the IC50 [1, 12] was 9 µM and the “survival and resorptive activity of authentic rabbit osteoclasts” value [2] was “inhibit”. The IC50 [9] was ~5 µM, the osteoblast survival [8] was “little activity” and the “ovariectomy-induced bone loss, trabecular density” value ([3]; 6 mg/kg daily injection, 21 days, pQCT, tibia) was “very effective at reversing the bone loss”. For the same compound, the “ovariectomy-induced bone loss in a mouse model” value [3] was “completely reverse”, the “ovariectomy-induced bone loss at the femoral site (femoral bone mineral content and density)” value [10] was “very effective at reversing the bone loss” and the “Classification CB1” value [4] was “Inverse agonist”.

In the case of `Cc1c(C(=O)c2cccc3ccccc23)c2cccc3c2n1[C@H](CN1CCOCC1)CO3` [WIN55212], the “J774 viability (summary in words)” value [1] is reported as “do not affect”, the “IC50 in J774 cells” value ([1]; J774 viability assay, Table 2) is reported as “inactive” and the “effect on J774 survival” value ([1]; concentrations of up to 100 μM) is reported as “did not affect”. The “CB receptor function (CB2)” value [6] was “CB2 agonist”.

`Cc1ccc(Cn2nc(C(=O)NCc3ccc4c(c3)OCO4)cc2-c2ccc(Cl)c(C)c2)cc1` [benzodioxo, 5-(4-Chloro-3-methyl-phenyl)-1-(4-methyl-benzyl)-1H-pyrazole-3-carboxylic acid (benzo[1,3]dioxol-5-yl-methyl) amide] showed an IC50 [1, 11] of ~15 µM.

With `COC(=O)c1cc(-c2ccc(Cl)c(C)c2)n(Cc2ccc(C)cc2)n1` [methyl, 5-(4-Chloro-3-methyl-phenyl)-1-(4-methyl-benzyl)-1H-pyrazole-3-carboxylic acid methyl ester] the IC50 [1, 11] was ~9 µM.

Compound `Cc1ccc(Cn2nc(C(=O)NN3CCCCC3)cc2-c2ccc(Cl)c(C)c2)cc1` [piperidinyl, 5-(4-Chloro-3-methyl-phenyl)-1-(4-methyl-benzyl)-1H-pyrazole-3-carboxylic acid piperidin-1-yl amide] has an IC50 [1, 11] of ~15 µM.

For `CCCCCc1cc(O)c2c(c1)OC(C)(C)[C@@H]1CCC(C)=C[C@@H]21` [Δ^9THC, Δ^9-tetrahydrocannabinol], the “Classification CB2” value [6] is given as “Neutral antagonist”.
